{"source": "patent US20220193441A1", "about": "“ENERGY AUGMENTATION STRUCTURES, EMITTERS OR COLLECTORS, FOR USE IN NON-INVASIVE IN-SITU PHOTOBIOMODULATION” (IMMUNOLIGHT, LLC, priority 2019, published 2022)", "origin": "cited, not measured here", "key": {"[1]": {"conditions": "clinical use"}, "tumors": {"tested_on": "tumors", "conditions": "in vivo"}, "[2]": {"tested_on": "epidermal growth factor receptor", "conditions": "higher UVA light doses, with versus without trimethyl psoralen"}}, "data": [{"smiles": "Oc1cccc(-c2c3nc(c(-c4cccc(O)c4)c4ccc([nH]4)c(-c4cccc(O)c4)c4nc(c(-c5cccc(O)c5)c5ccc2[nH]5)CC4)C=C3)c1", "note": "[Foscan, Tetra (m-hydroxyphenyl) chlorin]", "values": [{"measurement": "duration of skin photosensitivity", "setting": "[1]", "result": "approximately 2 weeks"}]}, {"smiles": "CC(=O)[O-].CC(=O)[O-].CCc1c(CC)c2cc3nc(cnc4cc(OCCOCCOCCOC)c(OCCOCCOCCOC)cc4ncc4nc(cc1[n-]2)C(CCCO)=C4C)C(C)=C3CCCO.O.[Lu+3]", "note": "[Lutetium texaphryin, Motexafin lutetium]", "values": [{"measurement": "selectivity for tumors compared to normal tissues", "setting": "tumors", "result": "one of the greatest reported selectivities for tumors"}]}, {"smiles": "Cc1cc2cc3c(C)cc(=O)oc3c(C)c2o1", "note": "[trimethyl psoralen]", "values": [{"measurement": "inhibition of 125I-EGF specific binding", "setting": "[2]", "result": "higher efficiency"}]}]}
